Test results: patent US20250009791A1, “METHOD FOR PREVENTION AND REDUCTION OF SKIN STASIS WITH COMPOSITIONS AND MATERIALS COMPRISING COPPER COMPOUNDS” (MEDCU TECHNOLOGIES LTD., priority 2018, published 2025)
“Also recorded” adds a separate entry of the source.

How the values were obtained:
[1] = test system: burned human skin explants; experiment: Histology of skin explants (H&E, Masson's trichrome); assay type: cell-based
Description: At indicated harvesting time points, skin explants were fixed with 4% formaldehyde for 1 hour at room temperature. Then, the samples were washed twice with PBS and kept at 70% ethanol at 2-8° C. until use. Following dehydration in gradual increasing concentrations of ethanol and embedment, paraffin sections (8 μm) were prepared, pasted on slides and either stained with haematoxylin and eosin (H&E) or Masson trichrome stain, according to the manufacturer specification (Sigma-Aldrich) followed by mounting with DPX mountant (Sigma, Israel).
Examination of tissue formation was performed on day 12 and 27. Sections of Normal and Burned skin, treated or not with copper ions were stained with H&E and Masson's trichrome staining respectively. FIGS. 6a-6c show full length images of sections stained with H&E.

[2] = test system: Ki67 stained cells in burned human skin explants; experiment: Ki67 immunostaining of proliferating keratinocytes at the re-epithelisation area; assay type: cell-based; details: FIG. 7
Description: Immunostaining with Rabbit-anti Ki67 (Abcam, UK) was performed following rehydration, blocking in 2% BSA in PBS for 20 mins, for 2 hours, followed by exposure to Goat Anti-Rabbit IgG H&L (HRP) for one hour and detection by DAB substrate (Abcam, UK). Washes were then performed in 0.025% Tween/PBS. Counterstain was performed with haematoxylin (Sigma, Israel). Images were captured using Zeiss® PrimoVert microscope connected to Motic® Moticam 5+ camera.

IL-6 = IL-6 secretion into spent medium by ELISA; assay type: cell-based, human
Description: During harvesting time points, the spent medium from all Test Groups was collected and centrifuged at 1500×g for 5 minutes to remove particulates. Media were kept at −80° C. until use. The secretion levels of IL-6, IL-8 and TGF-β were measured by commercial Enzyme-Linked Immunosorbent Assay (ELISA) kits according to manufacturer instructions (Biolegend, San Diego, CA). Briefly, plates were coated for 24 hours prior to assay with a specific anti-human capture antibody. At the day of the assay, coated plates were incubated with samples, followed by washes for unbound molecules. Then additional detection antibody was added and detected by Avidin-HRP solution. Finally, wells were incubated with a substrate solution, while absorbance was measured at 570 nm. In order to further understand how addition of copper ions affected the skin explants, the amounts of Interleukin 6 (IL-6), Interleukin 8 (IL-8) and transforming growth factor beta (TGF-β) found in the medium of the various treated explants were determined. FIGS. 3a, 3c and 3e show the cytokine expression in burn-induced inflammation in human ex vivo skin and comparison between the IL-6, IL-8 and TGF-β secretion by the untreated skin explants (Naïve Controls) and the wounded skin explants (Burn Controls) following wounding. […]

[3] = test system: epidermis of human skin explants; experiment: MTT viability assay of the epidermis of skin explants; assay type: cell-based; details: 0.02 μM or 1 μM copper ions
Description: To assess the cell viability throughout the culture period a 3-(4,5-dimethylthiazol-2-yl)-2,5-diphenyltetrazolium bromide (MTT) assay was performed at different days after wounding as follows:
To assess the cell viability throughout the culture period a 3-(4,5-dimethylthiazol-2-yl)-2,5-diphenyltetrazolium bromide (MTT) assay was performed 1, 3, 5, 10, 14, 21 and 27 days, following wounding, as follows: skin explants were incubated for 60 sec in pre-warmed PBS (56° C.). Then the epidermis layer of each replicate was separated from the dermis by grabbing the tissue edge with tweezers and peeling the epidermis off using a scalpel. Epidermal pieces were transferred to 96 well-plate, each well contains 150 μl MTT (Sigma, 0.5 mg/ml) and incubated for 1 hour at 37° C. and reduced light conditions. Then, the epidermis pieces were transferred to a new 96 well-plate containing 150 μl of isopropanol. Plates were placed for 5 min, 200 rpm in a plate shaker (MRC, Beijing, China). Following incubation, epidermis sections were removed, and absorbance was measured at 570 nm in Tecan plate reader (Tecan Group Ltd. Switzerland).

IL-8 = IL-8 secretion into spent medium by ELISA; assay type: cell-based, human
Description: (§1) During harvesting time points, the spent medium from all Test Groups was collected and centrifuged at 1500×g for 5 minutes to remove particulates. Media were kept at −80° C. until use. The secretion levels of IL-6, IL-8 and TGF-β were measured by commercial Enzyme-Linked Immunosorbent Assay (ELISA) kits according to manufacturer instructions (Biolegend, San Diego, CA). Briefly, plates were coated for 24 hours prior to assay with a specific anti-human capture antibody. At the day of the assay, coated plates were incubated with samples, followed by washes for unbound molecules. Then additional detection antibody was added and detected by Avidin-HRP solution. Finally, wells were incubated with a substrate solution, while absorbance was measured at 570 nm.
In order to further understand how addition of copper ions affected the skin explants, the amounts of Interleukin 6 (IL-6), Interleukin 8 (IL-8) and transforming growth factor beta (TGF-β) found in the medium of the various treated explants were determined. FIGS. 3a, 3c and 3e show the cytokine expression in burn-induced inflammation in human ex vivo skin and comparison between the IL-6, IL-8 and TGF-β secretion by the untreated skin explants (Naïve Controls) and the wounded skin explants (Burn Controls) following wounding. […]

TGF-β = TGF-β secretion into spent medium by ELISA; assay type: cell-based, human
Description: as §1
In order to further understand how addition of copper ions affected the skin explants, the amounts of Interleukin 6 (IL-6), Interleukin 8 (IL-8) and transforming growth factor beta (TGF-β) found in the medium of the various treated explants were determined. FIGS. 3a, 3c and 3e show the cytokine expression in burn-induced inflammation in human ex vivo skin and comparison between the IL-6, IL-8 and TGF-β secretion by the untreated skin explants (Naïve Controls) and the wounded skin explants (Burn Controls) following wounding. In these figures, the p values of a t-test between the cytokine expressions per a particular day following wounding are shown. Measurements were normalized to amount of cytokine secreted from normal skin and are presented as percent of Naïve control.
Reference is also made to FIGS. 3b, 3d and 3f showing the effect of addition of copper ions (0.02 μM or 1 μM) on secretion of IL-6, IL-8 and TGF-β, respectively, as compared to Naïve Controls and Burn Controls on Day 4 (treated with saline only) (FIGS. 3b and 3d) and on Day 6 (FIG. 3f) after wounding. In the graphs, the star sign “*” indicates the statistically significant difference as compared to the Naïve Controls, while the net sign “#” indicates the statistically significant difference as compared to the untreated (treated with saline only) Burn Controls.

[4] = test system: burn wounds on human skin explants (zone of stasis); experiment: Burn wound area measurement in ex-vivo human skin explant burn model; assay type: cell-based; details: for size of the wounds compared with wounds treated with saline only: 0.02 μM copper ions
Description: Human skin was obtained from healthy donors undergoing abdominal dermolipectomy after receiving informed consent. A 0.5 mm split-thickness skin graft was harvested using a dermatome (Aesculap AG & Co. KG, Tuttlingen, Germany) and was cut into 1 cm^2 pieces. Round burn wounds of with a diameter of […] were inflicted in the 0.7 cm^2 skin pieces by exposure to a soldering iron (95° C., 2 Sec). Triplicate pieces were kept intact as naïve controls. The injured and intact skin samples were placed dermis down on a stainless-steel grid and cultured at the air-liquid interface at 37° C. with 5% CO2 in Dulbecco's Modified Eagle's Medium (DMEM), 10% fetal calf serum (Biological Industries, Beit Ha′emek, Israel), and penicillin/streptomycin (100 IU/mL penicillin, […] streptomycin; Invitrogen). Culture medium was refreshed twice a week. The explants were cultured up to 27 days after wounding. Each individual experiment was performed with skin explants obtained from the same individual and the experiments were repeated at least three times. Reference is now made to FIGS. 1a and 1b schematically showing a side view and a top view, respectively, of this ex-vivo explant model. The skin explants are placed dermis down on a stainless-steel grid. Culture media is added to the bottom of the well, without reaching the epidermal layer, which is exposed to the air. […] From the stock solutions, solutions of 0.02 μM or 1 μM of copper ions were prepared in saline. […] Each control and treatment were performed in at least three replicate explants. Skin was obtained from 35-65-year-old healthy patients undergoing abdominoplasty surgery. The patient's under general anesthesia, went standard or circumferential abdominoplasty. After excision of the excess skin, the subcutaneous fat was removed using sterile technique. The defatted full-thickness skin was submerged in culture medium and transferred to the laboratory. The skin was cut into 8×8 mm squares by costume made apparatus. Round 0.8 mm diameter burn wounds were inflicted on the skin explants by exposure to a soldering iron (200° C., 10 Sec). The injured (burnt) and control intact skin samples were placed dermis down and kept at the air-liquid interface at 37° C. with 5% CO2 in Dulbecco's Modified Eagle's Medium supplemented with 100 IU/mL penicillin and […] streptomycin and 10% serum (Biological Industries, Beit Ha′emek, Israel). Culture medium was refreshed every 48 hours, i.e. immediately following injury and then again, every 48 hours, saline only or containing 0.02 μM or 1 μM copper ions were added onto the skin explant burn wounds. The explants were cultured up to 27 days after wounding. Pictures of burns were captured using Motic® Moticam 5+ camera at designated time points. Wound area was measured using ImageJ software suit. […]

With `[Cu+]` [copper ions] the “re-epithelisation (epithelia regeneration)” value ([1]; 0.02 μM and 1 μM copper ions, 12 days, H&E, vs Burn Control) was “Beginning of epithelia regeneration (grey arrows) is seen; also recorded: newly formed epithelia”, the “detachment of the epidermal tissue from the dermis” value ([1]; 0.02 μM or 1 μM copper ions, day 12, H&E, FIGS. 6b and 6c) was “less detached of the epidermal tissue from the dermis” and the re-epithelisation ([1]; Day 27, Masson's trichrome, FIG. 4c, vs control samples) was “clear re-epithelisation occurred”. The “collagen stain / amount of collagen fibers in the dermal layer” value ([1]; Day 27, Masson's trichrome, FIG. 4c, vs saline-treated control) was “an increase in the amount of collagen fibers; also recorded: greater collagen stain”, the “amount of Ki67 stained cells compared to control” value ([2]; 0.02 μM copper ions) was “significantly higher amount of Ki67 stained cells” and the “newly proliferating cells stained with Ki67” value ([2]; skin pieces fixed after 12 days) was “significantly more common”. For the same compound, the “levels of IL-6” value (IL-6; Day 1 following the burn) was “dramatically elevated in the Burn Controls but not in the copper ion treated samples”, the “IL-6 levels compared with Burn Control samples” value (IL-6; after Day 4) was “no significant differences in IL-6 levels” and the “viability of burned skin explants compared with untreated pieces” value ([3]; 5 days after burn, differences not statistically significant) was “a trend of increased viability”. The “viability of burned skin explants compared with untreated pieces” value ([3]; after 1 day) was “remained similar to the untreated pieces”, the “burn-induced increase of IL-8 compared with Burn Controls” value (IL-8; 0.02 μM or 1 μM copper ions from both copper sources, Day 4 (FIG. 3d)) was “significantly lower; also recorded: significantly attenuated or abolished” and the “amount of IL-8 secreted compared with Burn control samples” value (IL-8; Day 1) was “did not differ significantly”. For the same compound, the “burn-induced increase of TGF-β compared with Burn Controls” value (TGF-β; 0.02 μM or 1 μM copper ions from both copper sources, Day 4 (FIG. 3f)) was “dramatically inhibited; also recorded: significantly attenuated or abolished; also recorded: significantly inhibited”, the TGF-β level (TGF-β; Day 6 and onwards) was “returning to normal levels” and the “TGF-β secretion compared with Burn control samples” value (TGF-β; other examined days) was “no statistically significant differences”. The “size of the wounds compared with wounds treated with saline only” value ([4]; 5 and 10 days following wounding) was “similarly smaller wounds”, the “size of the wounds compared with wounds treated with saline only” value ([4]; three days following wounding) was “statistically smaller than the wounds which are treated with saline only” and the “burn size at the end of the experiment” value ([4]; end of the experiment) was “not massively improved”. The “increase in burn size that occurs after the initial damage” value ([4]; topical application of the ions) was “prevented the increase in burn size”.
